According to article PMC7998721, “A Comparative Study of the Effects of Platinum (II) Complexes on β-Amyloid Aggregation: Potential Neurodrug Applications” (International Journal of Molecular Sciences, 2021):

Columns and labels:
[1] = target: T1, β-amyloid Aβ21–40 (C-terminal fragment of Aβ1–40) (Homo sapiens, UniProt P05067); experiment: UV/Vis titration; ESI-MS […] adduct; also ThT aggregation; format: binding
T1 construct: gene APP

[2] = target: T1, β-amyloid Aβ21–40 (C-terminal fragment of Aβ1–40); experiment: UV/Vis titration; ESI-MS […] adduct; also ThT aggregation and CD; format: binding

T1 sequence (P05067 692-711): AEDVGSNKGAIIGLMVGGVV

| Structure (SMILES) | EC50 [1] [µM] | EC50 [2] [µM] |
| --- | --- | --- |
| [Cl][Pt-2]1([Cl])[n+]2cccc3ccc4ccc[n+]1c4c32 [Pt-phen, (SP-4-2)-dichlorido(1,10-phenanthroline)platinum(II)] | 49 ± 20 | – |
| [Cl][Pt-2]12[n+]3ccccc3-c3cccc([n+]31)-c1cccc[n+]12 [Pt-terpy, (SP-4-2)-chlorido(2,2′:6′,2′′-terpyridine)platinum(II) chloride] | – | 68 ± 14 |
